Activity calls are given as the source filed them.
How the values were obtained:
[1] = biological target: Cytochrome P450 2C19 (Homo sapiens, UniProt P33261); assay: Cytochrome panel assay with activity outcomes. Panel member name: p450-cyp2c19 Compounds with AC50 equal or less than 10 uM are considered active; type: functional; details: read-out: AC50
[2] = biological target: Cytochrome P450 2C9 (Homo sapiens, UniProt P11712)
[3] = biological target: T1, Heat shock factor protein 1 (Mus musculus, UniProt P38532); assay: enhancement of HSF1-driven luciferase signal – cell-based, NIH3T3, luminescence, dose retest, confirmation (AID 435004); type: functional;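 also: stress induced by proteasome inhibitor MG132 added 30 min after compound; luciferase reporter driven by HSF1 response element in NIH3T3 cells; actives raise luminescence as potentiators of the MG132 stress response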
T1 sequence (P38532 whole entry): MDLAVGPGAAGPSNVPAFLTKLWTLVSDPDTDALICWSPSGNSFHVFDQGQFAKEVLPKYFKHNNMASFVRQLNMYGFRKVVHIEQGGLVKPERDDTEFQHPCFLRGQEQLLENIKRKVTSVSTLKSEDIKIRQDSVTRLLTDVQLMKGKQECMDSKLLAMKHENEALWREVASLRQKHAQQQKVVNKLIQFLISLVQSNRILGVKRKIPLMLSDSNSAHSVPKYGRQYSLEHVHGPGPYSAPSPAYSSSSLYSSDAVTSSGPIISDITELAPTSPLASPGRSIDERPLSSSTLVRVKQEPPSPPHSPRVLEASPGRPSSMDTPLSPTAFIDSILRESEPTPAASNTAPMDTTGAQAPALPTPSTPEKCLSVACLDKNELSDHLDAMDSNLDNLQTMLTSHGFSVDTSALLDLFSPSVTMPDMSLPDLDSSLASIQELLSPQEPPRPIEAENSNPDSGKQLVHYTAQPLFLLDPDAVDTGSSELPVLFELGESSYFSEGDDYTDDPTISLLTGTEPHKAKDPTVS

[4] = biological target: Cytochrome P450 3A4 (Homo sapiens, UniProt P08684);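 also: CYP3A4 tested as one member of a cytochrome P450 panel screen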
Cytochrome P450 3A4, sequence (P08684 whole entry): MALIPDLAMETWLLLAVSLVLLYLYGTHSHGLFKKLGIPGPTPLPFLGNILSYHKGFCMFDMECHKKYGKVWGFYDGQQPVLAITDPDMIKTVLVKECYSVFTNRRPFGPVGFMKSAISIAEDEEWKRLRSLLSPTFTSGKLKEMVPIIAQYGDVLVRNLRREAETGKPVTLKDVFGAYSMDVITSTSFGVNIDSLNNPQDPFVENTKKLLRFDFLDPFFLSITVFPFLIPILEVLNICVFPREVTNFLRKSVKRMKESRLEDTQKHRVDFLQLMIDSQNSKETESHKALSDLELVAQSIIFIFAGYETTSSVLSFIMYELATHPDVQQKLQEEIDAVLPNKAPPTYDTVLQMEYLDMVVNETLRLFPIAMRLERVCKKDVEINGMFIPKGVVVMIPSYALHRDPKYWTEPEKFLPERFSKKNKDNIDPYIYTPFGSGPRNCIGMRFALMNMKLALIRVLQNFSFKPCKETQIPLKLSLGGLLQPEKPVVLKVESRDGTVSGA

[5] = biological target: Cytochrome P450 2D6 (Homo sapiens, UniProt P10635);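 also: CYP2D6 member of a cytochrome P450 panel assay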
Cytochrome P450 2D6, sequence (P10635 whole entry): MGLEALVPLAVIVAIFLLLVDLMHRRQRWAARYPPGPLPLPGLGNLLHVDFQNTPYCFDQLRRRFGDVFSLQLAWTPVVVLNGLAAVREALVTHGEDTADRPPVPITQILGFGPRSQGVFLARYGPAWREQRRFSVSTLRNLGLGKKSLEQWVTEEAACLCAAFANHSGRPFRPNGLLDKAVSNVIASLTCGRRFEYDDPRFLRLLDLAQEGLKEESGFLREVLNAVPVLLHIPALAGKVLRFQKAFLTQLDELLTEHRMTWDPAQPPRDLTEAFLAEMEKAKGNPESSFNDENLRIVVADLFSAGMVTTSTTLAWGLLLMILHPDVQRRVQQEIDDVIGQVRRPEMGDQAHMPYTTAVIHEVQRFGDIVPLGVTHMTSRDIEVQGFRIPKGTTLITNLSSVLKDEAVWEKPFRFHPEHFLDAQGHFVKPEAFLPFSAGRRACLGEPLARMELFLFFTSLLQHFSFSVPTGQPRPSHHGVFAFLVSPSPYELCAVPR

[6] = biological target: T2, Cytochrome P450 1A2 (Homo sapiens, UniProt P05177)
T2 sequence (P05177 whole entry): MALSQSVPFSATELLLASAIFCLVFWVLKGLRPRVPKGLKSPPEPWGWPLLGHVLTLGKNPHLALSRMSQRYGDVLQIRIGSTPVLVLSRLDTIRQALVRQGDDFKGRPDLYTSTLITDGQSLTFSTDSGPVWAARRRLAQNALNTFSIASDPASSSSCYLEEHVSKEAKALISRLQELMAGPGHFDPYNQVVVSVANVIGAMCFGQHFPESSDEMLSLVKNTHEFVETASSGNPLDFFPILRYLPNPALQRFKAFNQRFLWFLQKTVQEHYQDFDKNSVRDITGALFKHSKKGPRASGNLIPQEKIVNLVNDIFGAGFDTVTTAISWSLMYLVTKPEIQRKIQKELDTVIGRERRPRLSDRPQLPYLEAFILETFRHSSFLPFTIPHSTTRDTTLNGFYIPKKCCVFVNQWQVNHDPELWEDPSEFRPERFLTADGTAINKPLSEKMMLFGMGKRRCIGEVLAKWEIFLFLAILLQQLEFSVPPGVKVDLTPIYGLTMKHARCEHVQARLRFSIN

[7] = system: H4; assay: Luminescence Cell-Based Dose Response HTS to Identify Activators of 5'UTR Stem-Loop Driven Prion Protein mRNA Translation in H4 Neuroglioblastoma Cells. [Related pubchem assays: 1829 (Project Summary), 1814 (Primary HTS)]; type: functional; details: Homo sapiens

Cytochrome P450 2C9, sequence (P11712 whole entry): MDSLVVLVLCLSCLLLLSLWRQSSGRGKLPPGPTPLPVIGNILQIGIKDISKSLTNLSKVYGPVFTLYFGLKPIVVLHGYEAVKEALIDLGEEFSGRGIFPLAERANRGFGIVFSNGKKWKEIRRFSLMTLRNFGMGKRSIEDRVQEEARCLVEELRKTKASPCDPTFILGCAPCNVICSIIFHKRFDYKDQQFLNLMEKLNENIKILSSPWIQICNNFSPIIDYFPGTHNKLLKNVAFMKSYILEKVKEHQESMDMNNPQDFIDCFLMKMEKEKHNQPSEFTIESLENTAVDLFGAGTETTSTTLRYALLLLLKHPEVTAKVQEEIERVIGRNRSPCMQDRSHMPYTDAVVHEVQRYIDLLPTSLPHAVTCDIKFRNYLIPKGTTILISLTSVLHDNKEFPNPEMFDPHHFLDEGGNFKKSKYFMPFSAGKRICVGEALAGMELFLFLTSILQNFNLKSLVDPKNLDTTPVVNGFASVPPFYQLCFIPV
Cytochrome P450 2C19, sequence (P33261 whole entry): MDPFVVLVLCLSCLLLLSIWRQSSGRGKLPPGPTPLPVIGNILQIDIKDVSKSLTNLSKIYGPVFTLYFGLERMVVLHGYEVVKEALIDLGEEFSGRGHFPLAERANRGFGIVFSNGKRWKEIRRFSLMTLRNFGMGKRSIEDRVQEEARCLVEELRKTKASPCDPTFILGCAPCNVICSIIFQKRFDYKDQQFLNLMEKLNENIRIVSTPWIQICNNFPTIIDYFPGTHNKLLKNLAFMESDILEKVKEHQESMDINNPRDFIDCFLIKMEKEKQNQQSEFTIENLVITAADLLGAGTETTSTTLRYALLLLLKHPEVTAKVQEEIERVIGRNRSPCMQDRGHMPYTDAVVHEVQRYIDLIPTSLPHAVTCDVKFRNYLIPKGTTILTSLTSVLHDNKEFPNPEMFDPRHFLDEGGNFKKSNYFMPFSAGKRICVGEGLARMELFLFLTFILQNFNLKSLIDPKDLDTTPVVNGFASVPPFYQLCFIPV

Question: With `CCCCN1C(=O)C(NC(=O)CC(C)C)(C(F)(F)F)C2=C1CC(C)(C)CC2=O` (stereo unspecified) as the compound, how does the AC50 [1] read?
Answer: 25.1 µM (inconclusive)

Question: And the AC50 [2]?
Answer: 5.62 µM (inconclusive)

Question: For `O=c1ccc2ccc(Oc3ccc([N+](=O)[O-])cc3[N+](=O)[O-])cc2o1`, which EC50 [3] is on record?
Answer: 13.5 µM (active)

Question: With `Fc1ccc(-c2csc(N3CCC(c4ccccc4)C3)n2)cc1` (stereo unspecified) as the compound, how does the AC50 [4] read?
Answer: 28.2 µM (inconclusive)

Question: `Cc1ccc(NC(=S)N=Nc2c(O)n(C)c3ccc(S(=O)(=O)N4CCOCC4)cc23)cc1` was tested. Which EC50 [3] did it give?
Answer: 6.25 µM (active)

Question: With `COc1cccc(CN2CC(C(=O)NCc3ccc(C)o3)CCC2=O)c1` (stereo unspecified) as the compound, how does the EC50 [3] read?
Answer: > 260 µM (inactive)

Question: For `Cc1ccc(CNC(=O)Cn2c(=O)oc3ccccc32)o1`, which AC50 [5] is on record?
Answer: 20 µM (inconclusive)

Question: Which results are given for `CC12COC3(C(=O)Nc4nccs4)CC1CCC32C` (stereo unspecified)?
Answer: AC50 [6]: 12.6 µM (inconclusive); AC50 [2]: 0.01 µM (inconclusive)

Question: For `COc1ccc(C(=O)NCCCN2CCOCC2)cc1OC`, which AC50 [5] is on record?
Answer: 2 µM (inconclusive)

Question: What about the AC50 [2] of the same compound?
Answer: 14.1 µM (inconclusive)

Question: With `COc1ccc(-c2cc(C(=O)Nc3cccc(Cl)c3)no2)cc1` as the compound, how does the EC50 [7] read?
Answer: 0.184 µM (active)

Question: How did the AC50 [1] turn out when `CCOc1cc(NC(=O)c2ccccc2C)c(OCC)cc1N=C(S)NCC1CCCO1` (stereo unspecified) was run?
Answer: 11.2 µM (inconclusive)

Question: `CCOc1ccc(-c2nnc(-c3ccncc3)o2)cc1` was tested. Which AC50 [4] did it give?
Answer: 1.58 µM (inconclusive)

Question: `Cc1cccc(CN2CCC(C(=O)Nc3cccc(-c4cscn4)c3)CC2)n1` was tested. Which EC50 [3] did it give?
Answer: > 260 µM (inactive)

Question: Which results are given for `Cc1cc(C)c(C(N)=O)c(SCC(=O)c2ccc(Cl)cc2)n1`?
Answer: AC50 [6]: 15.8 µM (inconclusive); AC50 [4]: 31.6 µM (inconclusive)

Question: With `CC(=O)NCCn1ccc2ccccc21` as the compound, how does the EC50 [3] read?
Answer: > 260 µM (inactive)

Question: For `CCNc1ncc2nc(-c3cccc(C#N)c3)c(=O)n(CCC#N)c2n1`, which AC50 [6] is on record?
Answer: 0.631 µM (inconclusive)

Question: What about the AC50 [4] of the same compound?
Answer: 7.94 µM (inconclusive)

Question: With `CCNc1ncc2nc(-c3cc(F)cc(F)c3)c(=O)n(-c3ccc(OC)cc3)c2n1` as the compound, how does the AC50 [5] read?
Answer: 0.158 µM (inconclusive)

Question: With `CC(C)(C)CC(C)(C)c1ccc(O)c(C[N+](C)(C)[O-])c1` as the compound, how does the AC50 [4] read?
Answer: 5.01 µM (inconclusive)

Question: What about the AC50 [5] of the same compound?
Answer: 7.94 µM (inconclusive)

Question: What does the source list for `CCOC(=O)c1c(C)n(C)c2ccc(OC)c(NC(=O)CN3CCCCC3)c12`?
Answer: AC50 [4]: 14.1 µM (inconclusive); AC50 [1]: 11.2 µM (inconclusive); AC50 [5]: 20 µM (inconclusive)

Question: Which AC50 [4] does the source give for `CCCCN(C(S)=Nc1ccccc1)C1CCS(=O)(=O)C1` (stereo unspecified) here?
Answer: 22.4 µM (inconclusive)

Question: What does the source list for `Cc1onc(-c2ccccc2)c1C(=O)NC(CC(=O)O)c1ccc(OC(C)C)cc1` (stereo unspecified)?
Answer: AC50 [4]: 28.2 µM (inconclusive); AC50 [1]: 7.08 µM (inconclusive); AC50 [2]: 15.8 µM (inconclusive)

Question: With `Cc1ccc(NC(=S)N2CCN(C3CCCCC3)CC2)cc1` as the compound, how does the AC50 [4] read?
Answer: 10 µM (inconclusive)

Question: What does the source list for `O=C(CN(Cc1ccccc1)S(=O)(=O)c1ccc2c(c1)OCCO2)N/N=C/c1ccc(F)cc1`?
Answer: AC50 [6]: 11.2 µM (inconclusive); AC50 [5]: 15.8 µM (inconclusive)

Question: How did the AC50 [5] turn out when `COc1ccc(OCCn2c(C)c(/C=N/n3cnnc3)c3ccccc32)cc1` was run?
Answer: 3.98 µM (inconclusive)

Question: How did the AC50 [6] turn out when `C/C(=N/NC(=O)c1cccs1)c1ccc(NC(=O)COc2ccc(Cl)cc2Cl)cc1` was run?
Answer: 12.6 µM (inconclusive)

Question: What about the AC50 [2] of the same compound?
Answer: 4.47 µM (inconclusive)

Question: For `Cc1ccc(C)c(S(=O)(=O)c2c(N)n(/N=C/c3ccco3)c3nc4ccccc4nc23)c1`, which EC50 [3] is on record?
Answer: > 260 µM (inactive)

Question: With `C(=N\n1cnnc1)/c1cccn1-c1ccccc1` as the compound, how does the AC50 [4] read?
Answer: 39.8 µM (inconclusive)

Question: What about the AC50 [1] of the same compound?
Answer: 0.0251 µM (inconclusive)

Question: With `COc1ccccc1CNc1ncnc2ccc(-c3ccccc3OC)cc12` as the compound, how does the AC50 [5] read?
Answer: 12.6 µM (inconclusive)

Question: Which results are given for `Nc1ccccc1SCc1csc(-c2ccc(Cl)cc2)n1`?
Answer: AC50 [5]: 3.16 µM (inconclusive); AC50 [2]: 5.01 µM (inconclusive)

Question: `COc1ccc(-c2coc3cc(OC)cc(O)c3c2=O)cc1` [4',7-DIMETHOXY-5-HYDROXYGENISTEIN] was tested. Which AC50 [1] did it give?
Answer: 25.1 µM (inconclusive)

Question: And the AC50 [2]?
Answer: 2.82 µM (inconclusive)

Question: Which AC50 [6] does the source give for `CN(C(=O)Cc1ccc(Cl)c(Cl)c1)[C@H](CN1CCCC1)c1ccccc1` [ICI-199,441] here?
Answer: 31.6 µM (inconclusive)

Question: What about the AC50 [5] of the same compound?
Answer: 0.0126 µM (active)

Reference: ChEMBL document CHEMBL1201862, “PubChem BioAssay data set” (2004)
